{
  "source": "PubChem BioAssay AID588355",
  "about": "(Sanford-Burnham Center for Chemical Genomics, 2011)",
  "target": "Hexokinase HKDC1 (Homo sapiens) (UniProt Q2TB90)",
  "sequence (Q2TB90 whole entry, looked up)": "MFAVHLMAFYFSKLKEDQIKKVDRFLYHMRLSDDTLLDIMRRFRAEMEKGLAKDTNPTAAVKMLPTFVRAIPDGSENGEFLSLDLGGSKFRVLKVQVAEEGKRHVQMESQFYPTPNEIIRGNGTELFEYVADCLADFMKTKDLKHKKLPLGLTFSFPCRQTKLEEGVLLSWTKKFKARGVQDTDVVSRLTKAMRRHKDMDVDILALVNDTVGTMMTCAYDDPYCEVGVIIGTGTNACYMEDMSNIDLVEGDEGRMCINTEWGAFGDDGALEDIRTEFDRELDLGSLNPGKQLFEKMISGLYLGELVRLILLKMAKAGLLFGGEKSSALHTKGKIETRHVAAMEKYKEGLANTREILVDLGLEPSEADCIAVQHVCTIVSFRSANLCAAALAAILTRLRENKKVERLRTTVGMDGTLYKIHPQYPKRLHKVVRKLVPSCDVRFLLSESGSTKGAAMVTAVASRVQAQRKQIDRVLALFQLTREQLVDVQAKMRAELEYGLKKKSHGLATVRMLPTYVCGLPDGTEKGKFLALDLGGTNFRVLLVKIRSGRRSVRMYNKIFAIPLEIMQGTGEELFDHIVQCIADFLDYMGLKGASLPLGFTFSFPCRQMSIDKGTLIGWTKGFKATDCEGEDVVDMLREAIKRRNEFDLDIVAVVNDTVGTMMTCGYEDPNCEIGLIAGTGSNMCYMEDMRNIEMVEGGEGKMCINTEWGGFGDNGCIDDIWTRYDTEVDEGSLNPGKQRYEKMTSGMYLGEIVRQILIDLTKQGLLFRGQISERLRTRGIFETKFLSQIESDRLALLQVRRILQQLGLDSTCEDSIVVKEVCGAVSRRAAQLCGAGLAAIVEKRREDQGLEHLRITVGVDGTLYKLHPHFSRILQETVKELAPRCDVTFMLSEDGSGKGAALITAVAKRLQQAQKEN",
  "experiment": "analog inhibition of human HKDC1 activity – biochemical, set 2, SAR follow-up (AID 588355)",
  "details": "recombinant HKDC1, G6PDH/diaphorase/resazurin coupled fluorescence",
  "note": "Calls of active or inactive are those of the source.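 The calls were made as follows: active = IC50 below 20 µM in the confirmatory dose-response test; inactive = the rest.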",
  "data": [
    {"molecule": "COc1cc2c(cc1OC)-c1cc(N3CCc4ccccc4C3)nc(=O)n1CC2", "values": [
      {"measurement": "IC50", "value": "inactive"}
    ]}
  ]
}
